Assay results: ChEMBL document CHEMBL5291721, “A preclinical secondary pharmacology resource illuminates target-adverse drug reaction associations of marketed drugs” (Nat Commun, 2023)

Key:
[1] = molecular target: Epidermal growth factor receptor (Homo sapiens, UniProt P00533); assay type: functional
Estrogen receptor [2] = molecular target: T1, Estrogen receptor (Homo sapiens, UniProt P03372); assay type: functional
T1 sequence (P03372 whole entry): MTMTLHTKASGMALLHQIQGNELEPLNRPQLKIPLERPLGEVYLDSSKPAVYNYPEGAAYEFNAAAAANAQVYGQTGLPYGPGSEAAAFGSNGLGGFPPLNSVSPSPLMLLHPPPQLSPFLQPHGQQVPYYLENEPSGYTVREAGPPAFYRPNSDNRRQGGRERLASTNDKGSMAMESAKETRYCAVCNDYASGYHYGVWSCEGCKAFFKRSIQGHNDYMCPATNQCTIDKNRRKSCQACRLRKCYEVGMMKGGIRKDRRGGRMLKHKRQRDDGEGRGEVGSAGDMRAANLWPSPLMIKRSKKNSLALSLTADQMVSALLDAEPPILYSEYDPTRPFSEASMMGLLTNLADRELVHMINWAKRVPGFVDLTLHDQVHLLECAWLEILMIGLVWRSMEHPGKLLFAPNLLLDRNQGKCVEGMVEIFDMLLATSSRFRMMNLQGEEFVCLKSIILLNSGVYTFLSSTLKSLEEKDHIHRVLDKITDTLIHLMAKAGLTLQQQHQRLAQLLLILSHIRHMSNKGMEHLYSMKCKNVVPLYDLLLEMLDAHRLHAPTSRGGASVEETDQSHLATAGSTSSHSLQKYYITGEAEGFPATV

[3] = molecular target: Gamma-aminobutyric acid receptor subunit alpha-1/alpha-2/beta-2/gamma-2 (Homo sapiens, UniProt P14867+P18507+P47869+P47870); assay type: functional, cell-based
Androgen receptor = molecular target: T2, Androgen receptor (Homo sapiens, UniProt P10275)
T2 sequence (P10275 whole entry): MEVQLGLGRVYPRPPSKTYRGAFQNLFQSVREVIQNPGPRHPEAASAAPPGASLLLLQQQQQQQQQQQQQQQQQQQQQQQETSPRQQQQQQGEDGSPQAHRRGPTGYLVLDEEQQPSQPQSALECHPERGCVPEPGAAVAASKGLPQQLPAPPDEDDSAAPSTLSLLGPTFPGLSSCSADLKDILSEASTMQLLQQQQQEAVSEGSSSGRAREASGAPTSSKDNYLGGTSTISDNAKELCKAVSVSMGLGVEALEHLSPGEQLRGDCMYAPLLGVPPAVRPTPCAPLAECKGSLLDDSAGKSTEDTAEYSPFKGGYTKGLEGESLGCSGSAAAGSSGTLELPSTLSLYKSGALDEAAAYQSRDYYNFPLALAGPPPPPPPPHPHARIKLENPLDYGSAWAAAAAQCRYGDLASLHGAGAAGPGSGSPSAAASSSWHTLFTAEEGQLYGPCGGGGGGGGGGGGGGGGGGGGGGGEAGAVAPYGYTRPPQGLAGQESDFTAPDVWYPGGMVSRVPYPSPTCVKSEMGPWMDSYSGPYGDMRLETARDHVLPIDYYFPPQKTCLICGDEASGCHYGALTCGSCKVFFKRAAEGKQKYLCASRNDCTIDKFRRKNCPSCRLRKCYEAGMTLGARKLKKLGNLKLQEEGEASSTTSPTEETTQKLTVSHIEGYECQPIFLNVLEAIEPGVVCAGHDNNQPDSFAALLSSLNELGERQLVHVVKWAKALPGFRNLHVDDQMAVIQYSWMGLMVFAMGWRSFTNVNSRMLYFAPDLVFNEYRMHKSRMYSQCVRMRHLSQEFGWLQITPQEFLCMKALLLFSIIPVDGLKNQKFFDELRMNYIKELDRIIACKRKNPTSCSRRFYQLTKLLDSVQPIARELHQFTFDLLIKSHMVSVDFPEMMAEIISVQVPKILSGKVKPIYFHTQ

Glucocorticoid receptor = molecular target: T3, Glucocorticoid receptor (Homo sapiens, UniProt P04150); assay type: functional
T3 sequence (P04150 whole entry): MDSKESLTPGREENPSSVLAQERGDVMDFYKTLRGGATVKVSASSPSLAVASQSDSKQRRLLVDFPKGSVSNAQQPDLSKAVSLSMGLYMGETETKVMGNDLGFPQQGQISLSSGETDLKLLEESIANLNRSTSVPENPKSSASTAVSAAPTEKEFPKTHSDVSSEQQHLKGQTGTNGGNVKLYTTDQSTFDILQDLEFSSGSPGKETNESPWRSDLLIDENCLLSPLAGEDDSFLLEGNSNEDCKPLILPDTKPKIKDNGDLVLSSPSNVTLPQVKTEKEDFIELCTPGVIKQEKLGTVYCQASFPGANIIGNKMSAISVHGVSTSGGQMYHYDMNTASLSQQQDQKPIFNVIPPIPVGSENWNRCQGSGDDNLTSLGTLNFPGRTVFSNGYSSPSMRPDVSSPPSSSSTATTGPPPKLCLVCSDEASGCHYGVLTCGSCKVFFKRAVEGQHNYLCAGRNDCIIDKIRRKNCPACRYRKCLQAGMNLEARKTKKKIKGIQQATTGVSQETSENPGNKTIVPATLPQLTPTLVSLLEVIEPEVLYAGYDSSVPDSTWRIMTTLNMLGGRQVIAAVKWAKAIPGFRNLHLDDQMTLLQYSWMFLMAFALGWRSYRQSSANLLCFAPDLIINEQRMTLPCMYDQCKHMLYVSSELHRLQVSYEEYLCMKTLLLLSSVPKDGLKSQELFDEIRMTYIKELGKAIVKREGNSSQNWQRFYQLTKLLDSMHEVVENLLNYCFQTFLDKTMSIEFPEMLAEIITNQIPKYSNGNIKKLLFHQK

Estrogen receptor [4] = molecular target: T1, Estrogen receptor; assay type: functional; remark: listed apart in the source
Adenosine receptor A1 = molecular target: T4, Adenosine receptor A1 (Homo sapiens, UniProt P30542)
T4 sequence (P30542 whole entry): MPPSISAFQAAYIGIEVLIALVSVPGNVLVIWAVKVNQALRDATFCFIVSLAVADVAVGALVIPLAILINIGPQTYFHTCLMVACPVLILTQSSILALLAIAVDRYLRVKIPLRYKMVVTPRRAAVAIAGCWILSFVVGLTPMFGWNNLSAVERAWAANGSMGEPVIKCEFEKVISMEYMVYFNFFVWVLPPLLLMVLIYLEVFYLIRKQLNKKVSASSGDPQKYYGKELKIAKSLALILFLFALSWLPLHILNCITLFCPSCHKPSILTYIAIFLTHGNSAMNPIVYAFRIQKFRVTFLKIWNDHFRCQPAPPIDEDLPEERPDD
Also: assay procedure not described here.

Sequence of Epidermal growth factor receptor (P00533 whole entry): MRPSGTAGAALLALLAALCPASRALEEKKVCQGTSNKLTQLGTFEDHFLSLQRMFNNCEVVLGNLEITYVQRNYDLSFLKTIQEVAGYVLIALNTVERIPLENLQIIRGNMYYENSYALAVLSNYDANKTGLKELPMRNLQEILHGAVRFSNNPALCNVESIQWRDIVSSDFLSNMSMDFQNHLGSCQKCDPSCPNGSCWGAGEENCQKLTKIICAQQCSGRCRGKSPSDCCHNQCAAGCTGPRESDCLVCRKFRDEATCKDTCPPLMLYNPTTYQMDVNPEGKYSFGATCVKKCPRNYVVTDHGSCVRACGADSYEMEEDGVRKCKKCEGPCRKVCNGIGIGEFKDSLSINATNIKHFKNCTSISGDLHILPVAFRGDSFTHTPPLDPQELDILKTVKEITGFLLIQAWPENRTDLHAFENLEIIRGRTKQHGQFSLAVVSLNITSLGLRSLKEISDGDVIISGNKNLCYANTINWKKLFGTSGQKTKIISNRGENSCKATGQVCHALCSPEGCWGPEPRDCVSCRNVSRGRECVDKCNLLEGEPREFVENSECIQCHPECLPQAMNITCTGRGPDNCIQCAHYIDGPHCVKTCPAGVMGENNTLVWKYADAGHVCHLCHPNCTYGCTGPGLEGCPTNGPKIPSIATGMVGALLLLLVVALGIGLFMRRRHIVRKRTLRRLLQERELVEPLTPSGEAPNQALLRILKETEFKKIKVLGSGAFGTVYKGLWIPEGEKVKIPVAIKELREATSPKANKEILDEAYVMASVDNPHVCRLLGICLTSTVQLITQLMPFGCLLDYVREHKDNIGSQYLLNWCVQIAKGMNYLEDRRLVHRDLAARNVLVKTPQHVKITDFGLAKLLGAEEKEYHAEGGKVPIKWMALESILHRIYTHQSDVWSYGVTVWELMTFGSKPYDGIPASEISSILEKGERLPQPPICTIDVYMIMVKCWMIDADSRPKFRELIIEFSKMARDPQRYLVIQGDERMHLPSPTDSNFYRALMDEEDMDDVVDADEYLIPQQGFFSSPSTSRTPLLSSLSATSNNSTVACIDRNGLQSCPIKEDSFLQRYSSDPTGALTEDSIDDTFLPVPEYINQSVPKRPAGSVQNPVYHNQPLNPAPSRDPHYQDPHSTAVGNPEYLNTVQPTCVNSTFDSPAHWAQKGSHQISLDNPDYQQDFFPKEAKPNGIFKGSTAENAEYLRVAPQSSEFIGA
Sequence of Gamma-aminobutyric acid receptor subunit alpha-1/alpha-2/beta-2/gamma-2 (P14867 whole entry): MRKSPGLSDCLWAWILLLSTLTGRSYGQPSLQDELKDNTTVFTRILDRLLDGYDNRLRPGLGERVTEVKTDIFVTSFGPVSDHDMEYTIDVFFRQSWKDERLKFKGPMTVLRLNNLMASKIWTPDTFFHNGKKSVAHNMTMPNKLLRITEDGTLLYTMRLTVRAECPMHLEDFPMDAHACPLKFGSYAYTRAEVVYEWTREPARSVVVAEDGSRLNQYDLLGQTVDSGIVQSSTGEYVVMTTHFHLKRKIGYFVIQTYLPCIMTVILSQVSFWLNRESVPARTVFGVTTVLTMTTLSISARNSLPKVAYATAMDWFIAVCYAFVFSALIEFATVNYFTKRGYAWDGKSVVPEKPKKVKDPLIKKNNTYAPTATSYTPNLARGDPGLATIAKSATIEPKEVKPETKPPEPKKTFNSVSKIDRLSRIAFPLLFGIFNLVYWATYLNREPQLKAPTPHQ
Sequence of Gamma-aminobutyric acid receptor subunit alpha-1/alpha-2/beta-2/gamma-2 (P47870 whole entry): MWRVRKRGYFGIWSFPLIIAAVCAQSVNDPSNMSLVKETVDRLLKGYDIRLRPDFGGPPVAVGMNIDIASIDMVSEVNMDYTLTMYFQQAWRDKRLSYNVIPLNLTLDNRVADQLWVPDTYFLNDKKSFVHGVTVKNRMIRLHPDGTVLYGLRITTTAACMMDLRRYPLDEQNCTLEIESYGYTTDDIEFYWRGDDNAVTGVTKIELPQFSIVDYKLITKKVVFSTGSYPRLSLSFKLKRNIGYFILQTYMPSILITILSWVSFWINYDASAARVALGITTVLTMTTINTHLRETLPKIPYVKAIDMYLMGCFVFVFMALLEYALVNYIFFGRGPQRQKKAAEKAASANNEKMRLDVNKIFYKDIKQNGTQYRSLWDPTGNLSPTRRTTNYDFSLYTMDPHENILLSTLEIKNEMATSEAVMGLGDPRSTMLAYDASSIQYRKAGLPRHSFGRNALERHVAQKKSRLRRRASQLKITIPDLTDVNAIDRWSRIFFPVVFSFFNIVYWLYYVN
Sequence of Gamma-aminobutyric acid receptor subunit alpha-1/alpha-2/beta-2/gamma-2 (P18507 whole entry): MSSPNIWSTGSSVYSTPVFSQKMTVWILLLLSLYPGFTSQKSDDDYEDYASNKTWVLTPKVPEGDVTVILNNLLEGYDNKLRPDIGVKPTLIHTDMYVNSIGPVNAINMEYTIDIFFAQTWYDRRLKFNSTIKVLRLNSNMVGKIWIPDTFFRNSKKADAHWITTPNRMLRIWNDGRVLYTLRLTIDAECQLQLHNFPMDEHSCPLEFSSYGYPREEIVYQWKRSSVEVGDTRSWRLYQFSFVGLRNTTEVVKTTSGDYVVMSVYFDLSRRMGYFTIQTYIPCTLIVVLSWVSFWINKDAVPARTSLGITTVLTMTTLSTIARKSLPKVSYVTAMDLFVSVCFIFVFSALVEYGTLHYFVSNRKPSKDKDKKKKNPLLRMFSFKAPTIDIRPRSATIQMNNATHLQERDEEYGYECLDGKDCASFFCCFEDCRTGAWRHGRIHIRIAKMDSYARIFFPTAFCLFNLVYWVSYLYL
Sequence of Gamma-aminobutyric acid receptor subunit alpha-1/alpha-2/beta-2/gamma-2 (P47869 whole entry): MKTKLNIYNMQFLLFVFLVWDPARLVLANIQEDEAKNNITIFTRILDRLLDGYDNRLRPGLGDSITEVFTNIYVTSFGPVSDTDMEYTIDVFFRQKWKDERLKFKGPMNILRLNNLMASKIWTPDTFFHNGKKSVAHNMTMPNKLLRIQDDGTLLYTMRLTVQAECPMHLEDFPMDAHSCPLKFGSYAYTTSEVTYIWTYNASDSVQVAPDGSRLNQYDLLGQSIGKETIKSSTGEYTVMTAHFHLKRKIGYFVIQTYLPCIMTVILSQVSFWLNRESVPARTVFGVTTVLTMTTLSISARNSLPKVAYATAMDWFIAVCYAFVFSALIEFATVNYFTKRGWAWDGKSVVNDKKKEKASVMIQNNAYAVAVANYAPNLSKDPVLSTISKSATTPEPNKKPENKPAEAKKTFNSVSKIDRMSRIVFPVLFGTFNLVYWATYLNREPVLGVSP

Row | SMILES | AC50 [1] [µM] | AC50 (Estrogen receptor [2]) [µM] | AC50 [3] [µM] | AC50 (Androgen receptor) [µM] | AC50 (Glucocorticoid receptor) [µM] | AC50 (Estrogen receptor [4]) [µM] | AC50 (Adenosine receptor A1) [µM]
1 | C[C@H](Nc1ncnc2[nH]cnc12)c1cc2cccc(Cl)c2c(=O)n1-c1ccccc1 [DUVELISIB] | > 30 | > 30 | > 30 | > 30 | > 30 | > 30 | > 30
2 | O=C1[C@@H]2[C@H]3CC[C@H](C3)[C@@H]2C(=O)N1C[C@@H]1CCCC[C@H]1CN1CCN(c2nsc3ccccc23)CC1 [LURASIDONE] | > 30 | > 30 | > 30 | > 30 | > 10 | > 30 | 
3 | Cn1cnc2c(F)c(Nc3ccc(Br)cc3F)c(C(=O)NOCCO)cc21 [BINIMETINIB] | > 30 | > 30 | > 30 |  | > 30 | > 30 | 
